Data on 1 compound can be found in article PMC12369479 (Journal of Experimental Botany, 2025).

Structures are written as SMILES.

One experiment deals with PpADK2 (Physcomitrium patens, UniProt A9RF27). Description: ADK activity, coupled reaction with PK and LDH. The note with it: 100 µM substrate, 10 mM ATP, pH 7.5, 30 °C. As for the experimental part:
(§1) Substrate analogs were purchased from Sigma-Aldrich (www.sigmaaldrich.com). The ADK activity was measured spectrophotometrically on an Agilent 8453 UV-Vis spectrophotometer (www.agilent.com) at 30 °C using a coupled reaction with pyruvate kinase (PK) and lactate dehydrogenase (LDH) (www.sigmaaldrich.com) ([Blondin et al., 1994]). In this assay, PK converts ADP produced by ADK and phosphoenolpyruvate (PEP) to pyruvate. Subsequently, LDH then converts pyruvate to lactate using the coenzyme NADH, with the conversion monitored at 340 nm. The reaction was conducted in 50 mM Tris–HCl buffer at pH 7.5, containing 50 mM KCl, 6 mM MgCl2, 300 µM PEP, 200 µM NADH, 10 mM ATP, 2 U of PK, and 2.5 U of LDH, using various nucleoside substrates. Kinetic constants were determined using GraphPad Prism 8.0 software (www.graphpad.com). Each measurement was performed six times using repetitive purified enzymes. The activities of all five ADKs were also measured by HPLC ([Moffatt et al., 1991]). The reaction mixture comprised 50 mM Tris–HCl pH 7.5, 5 mM MgCl2, 0.5 mM DTT, 30 mM NaF, 5 mM ATP, 40 µM substrate, and 2–150 ng of purified ADK, depending on the isoform. The reaction was incubated at 30 °C for up to 1 h. […] Similarly, the conversion of cytokinin ribosides to monophosphates was followed on a LiChrosphere 60 RP-Select B (5 µm) LiChroCART column 125-4 column equilibrated with 10 mM triethylamine at pH 5.4 plus 10% methanol, and stepwise eluted with 100% methanol.

The target of another experiment is ZmADK1 (Zea mays, UniProt K7UH13). Kind of experiment: ADK activity, coupled reaction with PK and LDH. The settings on record: 100 µM substrate, 10 mM ATP, pH 7.5, 30 °C. As for the experimental part: as §1
ZmADK1, sequence (K7UH13 entry or part of it): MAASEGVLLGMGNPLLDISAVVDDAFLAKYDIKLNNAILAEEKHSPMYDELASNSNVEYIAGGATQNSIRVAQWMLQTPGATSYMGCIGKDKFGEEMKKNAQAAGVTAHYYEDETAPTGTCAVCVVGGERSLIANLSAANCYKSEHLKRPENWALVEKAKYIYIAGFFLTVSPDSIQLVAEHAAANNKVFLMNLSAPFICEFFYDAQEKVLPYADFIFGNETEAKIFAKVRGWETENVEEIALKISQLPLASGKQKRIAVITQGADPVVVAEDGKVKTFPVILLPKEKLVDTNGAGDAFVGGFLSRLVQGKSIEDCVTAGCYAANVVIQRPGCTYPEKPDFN
A further experiment deals with ZmADK2 (Zea mays, UniProt B4FFH8, T4S). Kind of experiment: ADK activity, coupled reaction with PK and LDH. In kind it is biochemical. The settings on record: ZmADK2; 100 µM substrate; 10 mM ATP; pH 7.5; 30 °C. As for the experimental part: as §1
ZmADK2, sequence (B4FFH8 1-342 T4S): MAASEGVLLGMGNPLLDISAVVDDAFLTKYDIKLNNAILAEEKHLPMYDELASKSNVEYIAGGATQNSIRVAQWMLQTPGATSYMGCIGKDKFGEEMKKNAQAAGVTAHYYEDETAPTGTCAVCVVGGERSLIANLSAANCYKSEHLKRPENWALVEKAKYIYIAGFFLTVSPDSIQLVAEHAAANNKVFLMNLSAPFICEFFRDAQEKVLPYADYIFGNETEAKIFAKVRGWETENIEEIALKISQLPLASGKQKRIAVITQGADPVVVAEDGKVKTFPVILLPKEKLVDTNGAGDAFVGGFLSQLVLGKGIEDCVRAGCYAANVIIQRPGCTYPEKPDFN
The target of another experiment is T1, PpADK1 (Physcomitrium patens, UniProt O49923).
T1 construct: made in house; host or cells: E. coli T7 Express Iq
T1 sequence (O49923 whole entry): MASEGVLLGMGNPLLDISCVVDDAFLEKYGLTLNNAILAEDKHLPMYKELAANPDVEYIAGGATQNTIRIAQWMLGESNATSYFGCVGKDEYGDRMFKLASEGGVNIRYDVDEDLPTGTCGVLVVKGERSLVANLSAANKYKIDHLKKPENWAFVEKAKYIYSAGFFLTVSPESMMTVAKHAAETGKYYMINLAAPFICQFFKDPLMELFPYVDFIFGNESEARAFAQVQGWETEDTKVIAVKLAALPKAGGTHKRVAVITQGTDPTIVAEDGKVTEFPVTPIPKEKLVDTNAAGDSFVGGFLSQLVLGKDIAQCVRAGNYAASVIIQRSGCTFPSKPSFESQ
Kind of experiment: Binding affinity by microscale thermophoresis (MST). On the set-up: species or system Physcomitrella patens. The settings on record: 50 mM HEPES pH 7.5, 1 mM MgCl2, first or only binding event, read-out: KD. As for the experimental part:
(§2) The microscale thermophoresis (MST) method was used to determine the binding affinity of various ribosides for ZmADK2 and PpADK1. Proteins were fluorescently labeled with RED-tris-NTA dye (www.nanotemper-technologies.com) using a 1:1 dye/protein molar ratio. The labeled protein was adjusted to 100–300 nM in 50 mM HEPES buffer pH 7.5, 1 mM MgCl2, and 0.2% Tween. Measurements were performed in premium capillaries on a Monolith NT.115 instrument at 30 °C with 5 s/30 s/5 s laser off/on/off times, respectively, with continuous sample fluorescence recording. Thermal stability was measured by nano-differential scanning fluorimetry on a Prometheus NT.48 instrument (www.nanotemper-technologies.com) in various buffers covering a pH (7.0–9.5) and temperature range (25–95 °C), with a heating rate of 1 °C min^–1, and using NT melting control software. Protein unfolding was measured by detecting the temperature-induced change in tryptophan fluorescence intensity at emission wavelengths of 330±5 nm and 350±5 nm. The melting temperature (Tm) was deduced from the maximum of the first derivative of the fluorescence ratios F350/F330.
Background: MST reads how a fluorescent partner responds to local heating, with and without ligand.

A further experiment has as its target ZmADK3 D19A variant (Zea mays, UniProt A0A1D6E5Z5, D19A). Description: ADK activity, coupled reaction with PK and LDH. Format: biochemical. The protocol:
(§3) All ZmADK3 mutants were cloned by 30 cycle PCRs using tail-to-tail oriented phosphorylated primers, with the mutation being located at the 5′ end of one of the primers. The following mutants were cloned using the primers given in Supplementary Table S1: D19A, R132A, N222A, E225A, N295A, and D299A. The products were treated with DpnI restriction enzyme, gel purified, and ligated using T4 DNA ligase (www.thermofisher.com). Clones were transformed into T7 express I^qE. coli competent cells.
as §1

In a further experiment the target is ZmADK3 D299A variant (Zea mays, UniProt A0A1D6E5Z5, D299A). Kind of experiment: ADK activity, coupled reaction with PK and LDH. In kind it is biochemical. The settings on record: 100 µM Ado, 10 mM ATP, 30 °C. The protocol: as §3, §1
ZmADK3 D299A variant, sequence (A0A1D6E5Z5 entry or part of it D299A): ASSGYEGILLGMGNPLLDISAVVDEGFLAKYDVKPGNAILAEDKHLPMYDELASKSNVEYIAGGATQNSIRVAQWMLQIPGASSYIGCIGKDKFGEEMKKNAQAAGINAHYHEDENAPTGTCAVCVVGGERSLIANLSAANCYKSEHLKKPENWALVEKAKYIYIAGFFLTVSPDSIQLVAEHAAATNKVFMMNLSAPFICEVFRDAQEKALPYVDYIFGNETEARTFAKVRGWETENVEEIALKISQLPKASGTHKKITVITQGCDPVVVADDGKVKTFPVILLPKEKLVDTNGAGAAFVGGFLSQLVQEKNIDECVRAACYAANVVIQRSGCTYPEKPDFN
The target of a further experiment is ZmADK3 E225A variant (Zea mays, UniProt A0A1D6E5Z5, E225A). Kind of experiment: ADK activity, coupled reaction with PK and LDH. The settings on record: 100 µM Ado, 10 mM ATP, 30 °C. In kind it is biochemical. As for the experimental part:
as §3, §1

The target of the next experiment is ZmADK3 N222A variant (Zea mays, UniProt A0A1D6E5Z5, N222A). Description: ADK activity, coupled reaction with PK and LDH. Format: biochemical. The settings on record: 100 µM Ado, 10 mM ATP, 30 °C. As for the experimental part:
as §3, §1

In another experiment the target is ZmADK3 N295A variant (Zea mays, UniProt A0A1D6E5Z5, N295A). Description: ADK activity, coupled reaction with PK and LDH. In kind it is biochemical. The note with it: 100 µM Ado, 10 mM ATP, 30 °C. As for the experimental part: as §3, §1
ZmADK3 N295A variant, sequence (A0A1D6E5Z5 entry or part of it N295A): as the sequence (A0A1D6E5Z5 entry or part of it D299A) above, with N294A, A298D counted along it
The target in a further experiment is ZmADK3 R132A variant (Zea mays, UniProt A0A1D6E5Z5, R132A). Kind of experiment: ADK activity, coupled reaction with PK and LDH. In kind it is biochemical. The note with it: 100 µM Ado, 10 mM ATP, 30 °C. As for the experimental part:
as §3, §1

A further experiment concerns all five ADKs. Kind of experiment: ADK kinetics, coupled reaction (summary for all isoforms). The note with it: range over all five ADKs. In kind it is biochemical, Zea mays, Physcomitrella patens. As for the experimental part:
Substrate analogs were purchased from Sigma-Aldrich (www.sigmaaldrich.com). The ADK activity was measured spectrophotometrically on an Agilent 8453 UV-Vis spectrophotometer (www.agilent.com) at 30 °C using a coupled reaction with pyruvate kinase (PK) and lactate dehydrogenase (LDH) (www.sigmaaldrich.com) ([Blondin et al., 1994]). In this assay, PK converts ADP produced by ADK and phosphoenolpyruvate (PEP) to pyruvate. Subsequently, LDH then converts pyruvate to lactate using the coenzyme NADH, with the conversion monitored at 340 nm. The reaction was conducted in 50 mM Tris–HCl buffer at pH 7.5, containing 50 mM KCl, 6 mM MgCl2, 300 µM PEP, 200 µM NADH, 10 mM ATP, 2 U of PK, and 2.5 U of LDH, using various nucleoside substrates. Kinetic constants were determined using GraphPad Prism 8.0 software (www.graphpad.com). Each measurement was performed six times using repetitive purified enzymes. The activities of all five ADKs were also measured by HPLC ([Moffatt et al., 1991]). The reaction mixture comprised 50 mM Tris–HCl pH 7.5, 5 mM MgCl2, 0.5 mM DTT, 30 mM NaF, 5 mM ATP, 40 µM substrate, and 2–150 ng of purified ADK, depending on the isoform. The reaction was incubated at 30 °C for up to 1 h. […]

In a further experiment the target is ZmADK2 and PpADK1. Description: Binding affinity by MST (summary for both enzymes). On the set-up: species or system Zea mays, Physcomitrella patens. The note with it: range over ZmADK2 and PpADK1. The protocol: as §2
The subject of another experiment is rabbit ADK. More on the design: method as in Miller et al., 1979a. The settings on record: ref Miller et al., 1979a; cited from earlier work.

ZmADK3 D19A variant, sequence (A0A1D6E5Z5 entry or part of it D19A): as the sequence (A0A1D6E5Z5 entry or part of it D299A) above, with D18A, A298D counted along it
ZmADK3 N222A variant, sequence (A0A1D6E5Z5 entry or part of it N222A): as the sequence (A0A1D6E5Z5 entry or part of it D299A) above, with N221A, A298D counted along it
ZmADK3 R132A variant, sequence (A0A1D6E5Z5 entry or part of it R132A): as the sequence (A0A1D6E5Z5 entry or part of it D299A) above, with R131A, A298D counted along it
ZmADK3 E225A variant, sequence (A0A1D6E5Z5 entry or part of it E225A): as the sequence (A0A1D6E5Z5 entry or part of it D299A) above, with E224A, A298D counted along it
PpADK2, sequence (A9RF27 entry or part of it): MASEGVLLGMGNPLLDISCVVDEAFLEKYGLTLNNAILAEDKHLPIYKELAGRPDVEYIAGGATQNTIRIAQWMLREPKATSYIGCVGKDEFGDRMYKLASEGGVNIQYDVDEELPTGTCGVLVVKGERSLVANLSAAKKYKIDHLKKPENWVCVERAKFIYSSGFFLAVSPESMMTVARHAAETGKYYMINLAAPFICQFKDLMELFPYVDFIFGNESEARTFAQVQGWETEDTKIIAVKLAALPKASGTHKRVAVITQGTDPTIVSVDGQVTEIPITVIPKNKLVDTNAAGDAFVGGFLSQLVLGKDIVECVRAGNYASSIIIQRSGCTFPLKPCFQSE

The Kd is the concentration at which binding is half-saturated. What is called Km is the substrate concentration at which the rate is half of its maximum. Regarding `Nc1ncnc2c1ncn2[C@@H]1O[C@H](CO)[C@@H](O)[C@H]1O` [Ado, adenosine], the Specific activity at PpADK2 worked out at 4.70±0.05 nmol s^–1 mg^–1; at ZmADK1, 30.5±0.4 nmol s^–1 mg^–1; on ZmADK2 it was 40.3±1.4 nmol s^–1 mg^–1; on ZmADK3 D19A variant (D19A, 100 µM Ado, 10 mM ATP, 30 °C), 3.3±0.4 nkat mg^–1; on ZmADK3 D299A variant, 1.8±0.1 nkat mg^–1; on ZmADK3 E225A variant, 1.9±0.4 nkat mg^–1. Also, the values for the Specific activity on ZmADK3 N222A variant, on ZmADK3 N295A variant and on ZmADK3 R132A variant were 13.4±0.7 nkat mg^–1, 10.1±0.1 nkat mg^–1 and 7.4±0.3 nkat mg^–1, respectively. Moreover, the Kd was 700 nM at PpADK1; 400 to 700 nM at ZmADK2 and PpADK1. The “reduction in specific activity” value at ZmADK3 D19A variant (D19A variant of ZmADK3 vs WT, Ado substrate) is reported as 10 fold. The Km in the experiment on all five ADKs is 0.5 to 0.7 µM; in the experiment on rabbit ADK, 0.4 µM.
